The text below walks through data of PubChem BioAssay AID743031 (The Scripps Research Institute Molecular Screening Center, 2013).

The test system of experiment [1] is Mouse Brain. Nature of the experiment: mouse brain penetration after oral dosing – LC-MS/MS, powder samples, in vivo study for V1a-R antagonist project, late-stage follow-up (AID 743031). To be noted: C57Bl6 mouse, 10 mg/kg PO, LC-MS/MS at 60 min, 60 min after 10 mg/kg PO.
The test system of experiment [2] is Mouse Plasma. The description is as above. The settings on record: C57Bl6 mouse, 10 mg/kg PO, LC-MS/MS at 60 min, 60 min after 10 mg/kg PO.
Setting [3] is: brain to plasma ratio, stronger effect = higher value.

`O=C(C1CCN(c2ccc(Cl)cn2)CC1)N(CC1CC1)c1ccc(Cl)cc1`: the compound concentration in experiment [1] was 3.27 µM; in experiment [2], 2.56 µM. The brain/plasma ratio in experiment [1] (setting [3]) and in experiment [2] (setting [3]) was 1.28 each time.
